According to ChEMBL document CHEMBL1201862, “PubChem BioAssay data set” (2004):
Calls of active or inactive are those of the source.

Tests used:
[1] = target: DNA repair protein RAD52 homolog (Homo sapiens, UniProt P43351); format: functional, biochemical
[2] = target: T1, Ubiquitin-conjugating enzyme E2 N (Homo sapiens, UniProt P61088); format: functional;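 note: Dose-response confirmation in a TR-FRET assay detecting UBC13-driven polyubiquitin chain formation, inhibition measured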
T1 sequence (P61088 whole entry): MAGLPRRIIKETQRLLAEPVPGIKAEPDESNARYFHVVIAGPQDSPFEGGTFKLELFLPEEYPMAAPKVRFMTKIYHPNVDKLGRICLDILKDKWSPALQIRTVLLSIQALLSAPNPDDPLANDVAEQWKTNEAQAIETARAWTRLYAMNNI

Major prion protein = Major prion protein (Homo sapiens, UniProt P04156); format: functional, cell-based
[3] = target: T2, DNA repair and recombination protein RAD54-like (Homo sapiens, UniProt Q92698); test: inhibitors of human RAD54 branch migration, confirmation, biochemical, fluorescence, cherry-picked samples, dose series (AID 651657); format: functional
T2 sequence (Q92698 whole entry): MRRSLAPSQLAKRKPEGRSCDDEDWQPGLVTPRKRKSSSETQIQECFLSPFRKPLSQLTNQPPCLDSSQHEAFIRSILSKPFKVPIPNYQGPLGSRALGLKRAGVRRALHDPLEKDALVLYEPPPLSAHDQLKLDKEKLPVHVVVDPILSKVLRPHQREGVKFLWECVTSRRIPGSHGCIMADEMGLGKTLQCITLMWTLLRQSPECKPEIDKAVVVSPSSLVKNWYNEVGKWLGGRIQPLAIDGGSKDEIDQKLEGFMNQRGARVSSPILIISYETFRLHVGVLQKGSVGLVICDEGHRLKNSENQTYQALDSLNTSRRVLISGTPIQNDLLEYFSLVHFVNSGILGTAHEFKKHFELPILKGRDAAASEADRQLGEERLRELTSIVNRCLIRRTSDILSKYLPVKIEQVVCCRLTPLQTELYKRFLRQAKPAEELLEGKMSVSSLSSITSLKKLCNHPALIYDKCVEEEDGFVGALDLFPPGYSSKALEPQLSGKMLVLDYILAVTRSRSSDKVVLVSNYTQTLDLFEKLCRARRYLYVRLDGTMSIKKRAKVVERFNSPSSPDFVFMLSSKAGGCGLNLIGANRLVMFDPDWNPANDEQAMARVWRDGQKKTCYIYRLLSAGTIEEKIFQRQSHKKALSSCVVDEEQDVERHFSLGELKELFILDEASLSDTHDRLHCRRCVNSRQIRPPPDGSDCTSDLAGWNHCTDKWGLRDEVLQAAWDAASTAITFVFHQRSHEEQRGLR

[4] = non-specific cell cytotoxicity, dose response, cytotoxicity control for PAX8 inhibitor project, plate reader, dry powder samples (AID 743021); format: functional, cell-based
[5] = cytotoxicity in OVCAR8 ovarian cancer cells, dose response, PAX8 project, cell-based, plate reader, dry powder samples (AID 743197); format: functional; conditions: OVCAR-8
Paired box protein Pax-8 = Paired box protein Pax-8 (Homo sapiens, UniProt Q06710); test: inhibitors of PAX8-driven TPO luciferase reporter, dose response, RMG-I cells, cherry-pick (AID 687027); format: functional, cell-based;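 note: luciferase reporter driven by Pax8 target thyroperoxidase promoter measured by SteadyGlo luminescence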
[6] = target: Potassium channel subfamily K member 3 (Homo sapiens, UniProt O14649); test: TASK1 (KCNK3) potassium channel inhibitors, SAR follow-up, CHO cells, FluxOR thallium flux (AID 652212); format: functional
[7] = HepG2 cell cytotoxicity, dose response, cytotoxicity control, cherry-picks, set 5 (AID 1053118); format: functional, cell-based
Albumin = Albumin (Bos taurus, UniProt P02769); test: Counterscreen for inhibitors of T-cell receptor (TCR)-CD3 interaction: Fluorescence-based biochemical high throughput dose response assay to identify inhibitors of T-cell receptor (TCR)-CD3 interaction using a TAMRA-labeled BSA probe.; format: functional
[8] = HepG2 cell cytotoxicity, dose response, cytotoxicity control for Shn3 inhibitor project, CellTiter-Glo, cherry-picked (AID 624134); format: functional, cell-based
INS1 = test: beta cell apoptosis inhibitors, cytokine rescue, dose response, luminescence, retest (AID 449756); format: functional, cell-based; conditions: Rattus norvegicus;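 note: cell death triggered by IL-1 beta plus TNF-alpha plus IFN-gamma mixture; protective hits raise ATP signal compared with cytokine alone wells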
[9] = control 3'UTR Renilla luciferase suppression, dose response, counter-screen for Shn3 inhibitor project, cell-based, Clone20-Shn3RL, cherry-picked (AID 624133); format: functional
[10] = Shn3 3'UTR reporter inhibitors, dose response, cell-based, Clone20 osteoblasts, firefly luciferase, cherry-picked (AID 624132); format: functional;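 note: firefly luciferase luminescence from reporter carrying the Shn3 3'UTR in osteoblasts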
[11] = HepG2 cell cytotoxicity, dose response, cytotoxicity control, plate reader, cherry-pick, antagonist series (AID 743416); format: functional, cell-based
[12] = Fluorescence-based cell-based high throughput dose response assay for inhibitors of the interaction of nucleotide-binding oligomerization domain containing 2 (NOD2) and the receptor-interacting serine-threonine kinase 2 (RIPK2).; format: functional; conditions: Homo sapiens
[13] = LGR2 antagonists, dose response, cell-based, HEK293, CRE-luciferase reporter, cherry pick, set 2 (AID 743343); format: functional;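 note: transfected cells were stimulated with diluted bursicon conditioned medium after compound addition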
[14] = target: COUP transcription factor 2 (Homo sapiens, UniProt P24468); test: Luminescence-based cell-based high throughput dose response assay to identify inhibitors of COUP-TFII (NR2F2).; format: functional;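 note: HEK293 cells transiently cotransfected with COUP-TFII expression vector and reporter; luciferase reporter luminescence driven by COUP-TFII from the pX2-168 reporter plasmid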
[15] = A549 cell cytotoxicity, dose response, cytotoxicity control, plate reader, cherry-pick, antagonist series (AID 743412); format: functional, cell-based
[16] = MC4R antagonists, dose response, counter-screen for LGR2 antagonist project, cell-based, plate reader, cherry pick (AID 743444); format: functional;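 note: transfected HEK 293 cells stimulated with alpha-MSH peptide; potency of inhibitors of the alpha-MSH evoked signal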
[17] = HEK293 cell cytotoxicity, dose response, cytotoxicity control, plate reader, cherry-picked samples (AID 743446); format: functional, cell-based

With `CCC[C@@H](CN1CCC[C@H]1CN1C(N)=NC[C@H]1CC(C)C)N1C[C@@H](Cc2ccccc2)N(CCCC2CCCC2)C1=N` as the compound, how does the AC50 [1] read?
Its AC50 is 19.5 µM (active).

And the IC50 [2]?
Its IC50 is > 20 µM (inactive).

For `COc1ccc(-c2nc3ccc(Br)cn3c2Cc2cccc(Cl)c2)cc1OC`, which IC50 (cells) is on record?
The IC50 was > 138 µM (inactive).

And the IC50 (Major prion protein)?
The IC50 was 5.35 µM (active).

Which results are given for `Cc1ccc(-c2nc(NCCCN(C)C)c3ccccc3n2)cc1`?
AC50 [1]: 7.08 µM (active); AC50 [3]: 10.6 µM (active)

What does the source list for `COc1ccccc1C#Cc1ccc2c(c1)O[C@@H](CN(C)Cc1ccncc1)[C@H](C)CN([C@@H](C)CO)S2(=O)=O`?
AC50 [4]: 33.2 µM (active); AC50 [5]: 33 µM (active); AC50 (Paired box protein Pax-8): 2.84 µM (active)

For `CCOc1ccccc1NC(=O)c1cccc(NC(=O)c2ccc(C(F)(F)F)cc2)c1`, which IC50 [6] is on record?
The IC50 was 0.22 µM (active).

With `CO[C@@H]1CN(C)C(=O)c2cc(NC(=O)Nc3ccc(Cl)c(Cl)c3)ccc2OC[C@H](C)NC[C@@H]1C` as the compound, how does the AC50 [7] read?
The AC50 was > 52 µM (inactive).

For `O=C(N/N=C/c1cc(Cl)cc([N+](=O)[O-])c1O)c1cccc(S(=O)(=O)N2CCOCC2)c1`, which IC50 (Albumin) is on record?
The IC50 was > 94.1 µM (inactive).

What does the source list for `OC(c1cc(-c2ccc(C(F)(F)F)cc2)nc(C(F)(F)F)c1)C1CCCCN1` (stereo not drawn) [ENPIROLINE]?
AC50 [8]: 6.6 µM (active); AC50 (INS1): 6.95 µM (active); AC50 [9]: 3.85 µM (active); AC50 [4]: 41.7 µM (active); AC50 [10]: 4.73 µM (active); AC50 (Paired box protein Pax-8): 17.9 µM (active)

What does the source list for `CC1CC(C)(O)CC(C(O)CC2CC(=O)NC(=O)C2)C1=O` (stereo not drawn) [RESACTIN A]?
AC50 [11]: 0.945 µM (active); IC50 [12]: 49.7 µM (inactive); AC50 [13]: 0.441 µM (active); AC50 [9]: 6.15 µM (active); IC50 [14]: 0.36 µM (active); AC50 [15]: 0.424 µM (active); AC50 [16]: 1.14 µM (active); AC50 [10]: 0.339 µM (active); AC50 [17]: 0.757 µM (active); AC50 (Paired box protein Pax-8): < 0.26 µM (active)
